# System: SARS-CoV-2 (Omicron variant, B.1.1.529.1/BA.1 sublineage)
# Assay type: cell-based
structure (smiles),measurement,value
OC[C@H]1O[C@@H](n2cnc3c(N[C@@H]4CCOC4)ncnc32)[C@H](O)[C@@H]1O [tecadenoson],100% CPE inhibitory concentration (CPEIC100),7.65 ± 0.25 µM

# — publication PMC9631343 (ACS Bio & Med Chem Au, 2022)
